According to patent publication US4659859A, “2-alkoxy-1-alkoxy phosphoryl dichlorides” (priority 1986, dated 1987):
Structures can show the parent of a compound that is named as a salt.

What was measured:
leukemic cells = details: Tidwell et al., Blood, 57, 794 (1981); cited from earlier work
[1] = tested on: carageenin-induced edema (rat paw swelling); experiment: Carageenin-induced edema (acute inflammation) model, rat paw swelling; type: in vivo; details: 25 mg/kg oral, at 4 hours, group of 5 rats
Description: It is well known that free arachidonic acid may be processed into potent inflammatory mediators such as the leukotrienes, prostaglandins, thromboxane A2 and prostacyclin. Inhibition of the release of arachidonic acid could result in a lowered inflammatory response.

[2] = tested on: release of arachidonic acid from membrane phospholipids (rabbit neutrophils); experiment: Inhibition of release of arachidonic acid from membrane phospholipids in glycogen-elicited rabbit neutrophils; type: cell-based; details: A-23187 0.5 mcg/ml activation, 5 minutes pretreatment at 37° C.
Description: In this procedure, glycogen-elicited rabbit neutrophils are labelled with ^14 C-arachidonic acid by incubation for one hour at 37° C. and followed by treatment with the compound under test at 37° C. for 5 minutes. The cells were then activated by addition of 0.5 mcg/ml of A-23187 (an ionophore) for 5 minutes. Cellular metabolism was stopped; the membrane lipids extracted; and the extracted lipids chromatographed on TLC plates. Assays were conducted for free ^14 C-arachidonic acid and hydroxy^14 C-eicosatetraenoic acid (HETES) using a radiochromatogram scanner.

[3] = tested on: spontaneously hypertensive rats (SHR); experiment: Blood pressure and heart rate in spontaneously hypertensive rats, femoral artery cannula; type: in vivo, rat; details: for Blood pressure: femoral artery cannula
Description: (§1) The above compounds are also active in lowering the blood pressure of spontaneously hypertensive rats (SHR). […] In the table, column 1 gives the compound used, column 2 the dose level, column 3, the route of administration, column 4, number of rats, column 5, the time of blood pressure measurement, column 6, blood pressure in mm (Hg), and column 7, heart rate.
**B.P. measured by femoral artery cannula.

[4] = tested on: X-5563 plasma cell myeloma; experiment: Antitumor activity vs X-5563 plasma cell myeloma in mice; type: in vivo; details: daily for 10 days after inoculation
Description: Compounds according to formula II above are also active against transplanted tumors in mice. Table II which follows gives the results of testing (d,1)-2-ethoxy-1-[(2-trimethylaminoethoxy)phosphinyloxy]-eicosane,hydroxy inner salt, (A), against several such tumors. In the table, column 1 gives the name of the tumor, column 2 the dosage levels, column 3 toxic deaths, column 4, the percent tumor growth inhibition and column 5, the dosage schedule or regimen. Ten mice were given each dosage I.P. and a group of 20 mice used as controls.
Table III gives the results obtained by comparing the activity of the racemate (d,1)-2-ethoxy-1-[(2-trimethylaminoethoxy)phosphinyloxy]eicosane,hydroxy inner salt (A), the L-(-)enantiomer (B) and the D-(+)enantiomer (C) versus X-5563, a plasma cell myeloma.

[5] = tested on: spontaneously hypertensive rats (SHR); experiment: Blood pressure and heart rate in spontaneously hypertensive rats, tail cuff method; type: in vivo, rat; details: administered subcutaneously, various dose levels
Description: as §1
*B.P. measured by tail cuff method.

[6] = 3 mg/kg I.V., 0 hours (baseline)
[7] = 10 mg/kg I.V., 0 hours (baseline)

## CCCCCCCCCCCCCCCCCCOCC(COP(=O)([O-])OCC[N+](C)(C)C)OC (stereo not drawn)
Leukemic cells
  inhibits the proliferation of leukemic cells: inhibits the proliferation of leukemic cells

## CCCCCCCCCCCCCCCCCCC(COP(=O)([O-])OCC[N+](C)(C)C)OC (racemic) [Compound 7, (d,l)-2-Methoxy-1-[(2-trimethylaminoethoxy)phosphinyloxy]eicosane, hydroxy inner salt]
[1]
  inhibition of rat paw swelling: 68%
[2]
  inhibition of the release of arachidonic acid (AA) from phospholipids: 88%
  inhibition of the total production of free AA and HETES: 100%

## CCCCCCCCCCCCCCCCCC[C@@H](COP(=O)([O-])OCC[N+](C)(C)C)OCC [Compound 1, D-2-Ethoxy-1-[(2-trimethylaminoethoxy)phosphinyloxy]eicosane, hydroxy inner salt]
[3]; [6]
  Heart Rate: 326 beats/min
  Blood pressure: 197 mm Hg
[3]; 3 mg/kg I.V., 1.0 hours
  Heart Rate: 376 beats/min
  Blood pressure: 194 mm Hg
[3]; 3 mg/kg I.V., .08 hours
  Heart Rate: 373 beats/min
  Blood pressure: 197 mm Hg
[3]; 3 mg/kg I.V., .25 hours
  Heart Rate: 400 beats/min
  Blood pressure: 200 mm Hg
[3]; 3 mg/kg I.V., .5 hours
  Heart Rate: 346 beats/min
  Blood pressure: 188 mm Hg
[3]; [7]
  Heart Rate: 345 beats/min
  Blood pressure: 183 mm Hg
[3]; 10 mg/kg I.V., 1.0 hours
  Heart Rate: 355 beats/min
  Blood pressure: 178 mm Hg
[3]; 10 mg/kg I.V., .08 hours
  Heart Rate: 360 beats/min
  Blood pressure: 185 mm Hg
[3]; 10 mg/kg I.V., .25 hours
  Heart Rate: 360 beats/min
  Blood pressure: 184 mm Hg
[3]; 10 mg/kg I.V., .5 hours
  Heart Rate: 345 beats/min
  Blood pressure: 177 mm Hg
[4]; 17 mg/kg
  Percent inhibition of Tumor growth: 76%
  Toxic deaths: 2/10
[4]; 25 mg/kg
  Percent inhibition of Tumor growth: 95%
  Toxic deaths: 1/10
[4]; 35 mg/kg
  Percent inhibition of Tumor growth: Toxic
  Toxic deaths: 5/10
[4]; 50 mg/kg
  Percent inhibition of Tumor growth: Toxic
  Toxic deaths: 10/10

## CCCCCCCCCCCCCCCCCC[C@H](COP(=O)([O-])OCC[N+](C)(C)C)OCC [Compound 2, L-2-Ethoxy-1-[(2-trimethylaminoethoxy)phosphinyloxy]eicosane, hydroxy inner salt]
[5]
  hypotensive effects in SHR (in words): hypotensive effects
[3]; [6]
  Heart Rate: 340 beats/min
  Blood pressure: 177 mm Hg
[3]; 3 mg/kg I.V., 1.0 hours
  Heart Rate: 380 beats/min
  Blood pressure: 162 mm Hg
[3]; 3 mg/kg I.V., .08 hours
  Heart Rate: 385 beats/min
  Blood pressure: 107 mm Hg
[3]; 3 mg/kg I.V., .25 hours
  Heart Rate: 367 beats/min
  Blood pressure: 144 mm Hg
[3]; 3 mg/kg I.V., .5 hours
  Heart Rate: 370 beats/min
  Blood pressure: 162 mm Hg
[4]; 2.5 mg/kg
  Percent inhibition of Tumor growth: 18%
  Toxic deaths: 1/10
[4]; 5 mg/kg
  Percent inhibition of Tumor growth: 44%
  Toxic deaths: 1/10
[4]; 10 mg/kg
  Percent inhibition of Tumor growth: 53%
  Toxic deaths: 0/10
[4]; 20 mg/kg
  Percent inhibition of Tumor growth: 67%
  Toxic deaths: 0/10
